Source: US12077503B2, “Substituted cyclic amides and their use as herbicides” (FMC CORPORATION, priority 2015, dated 2024)

What was measured:
Assay in all cases: Test C preemergence
Type in all cases: in vivo
[1] = test system: Galium (catchweed bedstraw, Galium aparine); conditions: for Plant response rating (scale of 0 to 100), Galium: 0 is no effect, 100 is complete control; for Plant response rating, Galium: scale 0 to 100, 0 no effect, 100 complete control
Outline: (§1)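 Visual 0 (no effect) to 100 (complete control) ratings versus controls, taken 13–15 d after treatment in the greenhouse; dash means no result. Compounds in a surfactant-containing non-phytotoxic solvent blend were applied preemergence to seeds in loam-sand soil or postemergence to 1- to 4-leaf plants (2–18 cm) in peat-based medium.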

[2] = test system: barnyardgrass (Echinochloa crus-galli); conditions: for Plant response rating (scale of 0 to 100), Barnyardgrass: 0 is no effect, 100 is complete control; for Plant response rating, Barnyardgrass: scale 0 to 100, 0 no effect, 100 complete control
Outline: as §1

[3] = test system: blackgrass (Alopecurus myosuroides); conditions: for Plant response rating (scale of 0 to 100), Blackgrass: 0 is no effect, 100 is complete control; for Plant response rating, Blackgrass: scale 0 to 100, 0 no effect, 100 complete control
Outline: as §1

[4] = test system: corn (Zea mays); conditions: for Plant response rating (scale of 0 to 100), Corn: 0 is no effect, 100 is complete control; for Plant response rating, Corn: scale 0 to 100, 0 no effect, 100 complete control
Outline: as §1

[5] = test system: crabgrass, large (large crabgrass, Digitaria sanguinalis); conditions: for Plant response rating (scale of 0 to 100), Crabgrass, Large: 0 is no effect, 100 is complete control; for Plant response rating, Crabgrass, Large: scale 0 to 100, 0 no effect, 100 complete control
Outline: as §1

[6] = test system: foxtail, giant (giant foxtail, Setaria faberii); conditions: for Plant response rating (scale of 0 to 100), Foxtail, Giant: 0 is no effect, 100 is complete control; for Plant response rating, Foxtail, Giant: scale 0 to 100, 0 no effect, 100 complete control
Outline: as §1

[7] = test system: lambsquarters (Chenopodium album); conditions: for Plant response rating (scale of 0 to 100), Lambsquarters: 0 is no effect, 100 is complete control; for Plant response rating, Lambsquarters: scale 0 to 100, 0 no effect, 100 complete control
Outline: as §1

[8] = test system: morningglory (Ipomoea coccinea); conditions: for Plant response rating (scale of 0 to 100), Morningglory: 0 is no effect, 100 is complete control; for Plant response rating, Morningglory: scale 0 to 100, 0 no effect, 100 complete control
Outline: as §1

[9] = test system: nutsedge, yellow (yellow nutsedge, Cyperus esculentus); conditions: for Plant response rating (scale of 0 to 100), Nutsedge, Yellow: 0 is no effect, 100 is complete control; for Plant response rating, Nutsedge, Yellow: scale 0 to 100, 0 no effect, 100 complete control
Outline: as §1

[10] = test system: oilseed rape (Brassica napus); conditions: for Plant response rating (scale of 0 to 100), Oilseed Rape: 0 is no effect, 100 is complete control; for Plant response rating, Oilseed Rape: scale 0 to 100, 0 no effect, 100 complete control
Outline: as §1

[11] = test system: ragweed (common ragweed, Ambrosia elatior); conditions: for Plant response rating (scale of 0 to 100), Ragweed: 0 is no effect, 100 is complete control; for Plant response rating, Ragweed: scale 0 to 100, 0 no effect, 100 complete control
Outline: as §1

[12] = test system: ryegrass, Italian (Italian ryegrass, Lolium multiflorum); conditions: for Plant response rating (scale of 0 to 100), Ryegrass, Italian: 0 is no effect, 100 is complete control; for Plant response rating, Ryegrass, Italian: scale 0 to 100, 0 no effect, 100 complete control
Outline: as §1

[13] = test system: soybean (Glycine max); conditions: for Plant response rating (scale of 0 to 100), Soybean: 0 is no effect, 100 is complete control; for Plant response rating, Soybean: scale 0 to 100, 0 no effect, 100 complete control
Outline: as §1

[14] = test system: velvetleaf (Abutilon theophrasti); conditions: for Plant response rating (scale of 0 to 100), Velvetleaf: 0 is no effect, 100 is complete control; for Plant response rating, Velvetleaf: scale 0 to 100, 0 no effect, 100 complete control
Outline: as §1

[15] = test system: waterhemp (common waterhemp, Amaranthus rudis); conditions: for Plant response rating (scale of 0 to 100), Waterhemp: 0 is no effect, 100 is complete control; for Plant response rating, Waterhemp: scale 0 to 100, 0 no effect, 100 complete control
Outline: as §1

[16] = test system: wheat (winter wheat, Triticum aestivum); conditions: for Plant response rating (scale of 0 to 100), Wheat: 0 is no effect, 100 is complete control; for Plant response rating, Wheat: scale 0 to 100, 0 no effect, 100 complete control
Outline: as §1

## CN1CC(c2ccc(C(C)(F)F)cc2)C(C(=O)Nc2ccccc2F)C1=O (stereo not shown) [Compound 691]
[1]; 16 g ai/ha
  Plant response rating (scale of 0 to 100), Galium: 100
[1]; 31 g ai/ha
  Plant response rating (scale of 0 to 100), Galium: 100
[1]; 62 g ai/ha
  Plant response rating, Galium: 95
[1]; 125 g ai/ha
  Plant response rating, Galium: 95
[2]; 16 g ai/ha
  Plant response rating (scale of 0 to 100), Barnyardgrass: 90
[2]; 31 g ai/ha
  Plant response rating (scale of 0 to 100), Barnyardgrass: 90
[2]; 62 g ai/ha
  Plant response rating, Barnyardgrass: 98
[2]; 125 g ai/ha
  Plant response rating, Barnyardgrass: 100
[3]; 16 g ai/ha
  Plant response rating (scale of 0 to 100), Blackgrass: 0
[3]; 31 g ai/ha
  Plant response rating (scale of 0 to 100), Blackgrass: 0
[3]; 62 g ai/ha
  Plant response rating, Blackgrass: 5
[3]; 125 g ai/ha
  Plant response rating, Blackgrass: 75
[4]; 16 g ai/ha
  Plant response rating (scale of 0 to 100), Corn: 0
[4]; 31 g ai/ha
  Plant response rating (scale of 0 to 100), Corn: 40
[4]; 62 g ai/ha
  Plant response rating, Corn: 55
[4]; 125 g ai/ha
  Plant response rating, Corn: 65
[5]; 16 g ai/ha
  Plant response rating (scale of 0 to 100), Crabgrass, Large: 98
[5]; 31 g ai/ha
  Plant response rating (scale of 0 to 100), Crabgrass, Large: 100
[5]; 62 g ai/ha
  Plant response rating, Crabgrass, Large: 100
[5]; 125 g ai/ha
  Plant response rating, Crabgrass, Large: 100
[6]; 16 g ai/ha
  Plant response rating (scale of 0 to 100), Foxtail, Giant: 95
[6]; 31 g ai/ha
  Plant response rating (scale of 0 to 100), Foxtail, Giant: 95
[6]; 62 g ai/ha
  Plant response rating, Foxtail, Giant: 98
[6]; 125 g ai/ha
  Plant response rating, Foxtail, Giant: 98
[7]; 16 g ai/ha
  Plant response rating (scale of 0 to 100), Lambsquarters: 70
[7]; 31 g ai/ha
  Plant response rating (scale of 0 to 100), Lambsquarters: 85
[7]; 62 g ai/ha
  Plant response rating, Lambsquarters: 90
[7]; 125 g ai/ha
  Plant response rating, Lambsquarters: 90
[8]; 16 g ai/ha
  Plant response rating (scale of 0 to 100), Morningglory: 0
[8]; 31 g ai/ha
  Plant response rating (scale of 0 to 100), Morningglory: 30
[8]; 62 g ai/ha
  Plant response rating, Morningglory: 20
[8]; 125 g ai/ha
  Plant response rating, Morningglory: 40
[9]; 16 g ai/ha
  Plant response rating (scale of 0 to 100), Nutsedge, Yellow: 0
[9]; 31 g ai/ha
  Plant response rating (scale of 0 to 100), Nutsedge, Yellow: 0
[9]; 62 g ai/ha
  Plant response rating, Nutsedge, Yellow: 0
[9]; 125 g ai/ha
  Plant response rating, Nutsedge, Yellow: 20
[10]; 16 g ai/ha
  Plant response rating (scale of 0 to 100), Oilseed Rape: 0
[10]; 31 g ai/ha
  Plant response rating (scale of 0 to 100), Oilseed Rape: 35
[10]; 62 g ai/ha
  Plant response rating, Oilseed Rape: 50
[10]; 125 g ai/ha
  Plant response rating, Oilseed Rape: 80
[11]; 16 g ai/ha
  Plant response rating (scale of 0 to 100), Ragweed: 0
[11]; 31 g ai/ha
  Plant response rating (scale of 0 to 100), Ragweed: 100
[11]; 62 g ai/ha
  Plant response rating, Ragweed: 70
[11]; 125 g ai/ha
  Plant response rating, Ragweed: 85
[12]; 16 g ai/ha
  Plant response rating (scale of 0 to 100), Ryegrass, Italian: 0
[12]; 31 g ai/ha
  Plant response rating (scale of 0 to 100), Ryegrass, Italian: 0
[12]; 62 g ai/ha
  Plant response rating, Ryegrass, Italian: 35
[12]; 125 g ai/ha
  Plant response rating, Ryegrass, Italian: 55
[13]; 16 g ai/ha
  Plant response rating (scale of 0 to 100), Soybean: 0
[13]; 31 g ai/ha
  Plant response rating (scale of 0 to 100), Soybean: 0
[13]; 62 g ai/ha
  Plant response rating, Soybean: 15
[13]; 125 g ai/ha
  Plant response rating, Soybean: 15
[14]; 16 g ai/ha
  Plant response rating (scale of 0 to 100), Velvetleaf: 10
[14]; 31 g ai/ha
  Plant response rating (scale of 0 to 100), Velvetleaf: 25
[14]; 62 g ai/ha
  Plant response rating, Velvetleaf: 40
[14]; 125 g ai/ha
  Plant response rating, Velvetleaf: 50
[15]; 16 g ai/ha
  Plant response rating (scale of 0 to 100), Waterhemp: 85
[15]; 31 g ai/ha
  Plant response rating (scale of 0 to 100), Waterhemp: 85
[15]; 62 g ai/ha
  Plant response rating, Waterhemp: 95
[15]; 125 g ai/ha
  Plant response rating, Waterhemp: 95
[16]; 16 g ai/ha
  Plant response rating (scale of 0 to 100), Wheat: 10
[16]; 31 g ai/ha
  Plant response rating (scale of 0 to 100), Wheat: 10
[16]; 62 g ai/ha
  Plant response rating, Wheat: 60
[16]; 125 g ai/ha
  Plant response rating, Wheat: 80
